# Data: patent US20100022611A1 (THE UNIVERSITY COURT OF THE UNIVERSITY OF ABERDEEN, priority 2007, published 2010)
# Tests used:
# [1] = target: T1, cannabinoid CB1 receptor (Mus musculus, UniProt P47746); experiment: Mouse brain competition binding assay, [3H]CP55940 displacement; conditions: mouse brain membranes, [3H]CP55940 0.7 nM; read-out: Ki (nM) [affinity] Mouse Brain [3H]CP55940 Displacement
# T1 construct: Whole brains from eight adult male mice were dissected and suspended in centrifugation buffer; from tissue; host or cells: mouse whole brain membranes
# T1 sequence (P47746 whole entry): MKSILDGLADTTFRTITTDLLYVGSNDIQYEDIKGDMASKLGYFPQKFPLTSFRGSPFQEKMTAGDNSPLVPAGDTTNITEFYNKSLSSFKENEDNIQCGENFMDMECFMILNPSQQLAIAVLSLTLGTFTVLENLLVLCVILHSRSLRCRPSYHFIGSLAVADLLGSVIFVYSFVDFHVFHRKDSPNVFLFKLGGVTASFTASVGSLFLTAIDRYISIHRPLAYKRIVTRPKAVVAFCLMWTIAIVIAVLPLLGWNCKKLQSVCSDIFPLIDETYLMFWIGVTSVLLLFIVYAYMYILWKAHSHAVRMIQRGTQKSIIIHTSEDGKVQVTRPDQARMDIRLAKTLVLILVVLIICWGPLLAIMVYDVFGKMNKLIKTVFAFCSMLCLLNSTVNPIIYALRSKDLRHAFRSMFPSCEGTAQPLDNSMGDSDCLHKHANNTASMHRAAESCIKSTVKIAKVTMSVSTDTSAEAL
# Procedure: The competition binding assay is a […] radioligand binding assay, which determines the affinity of a given compound for a specific receptor site, in this instance, the cannabinoid CB1 receptor. Mouse brain membranes were the chosen tissue due to their high expression of CB1 receptors.
# Whole brains from eight adult male mice were dissected and suspended in centrifugation buffer. The brains were then homogenised with a Polytron Homogeniser prior to centrifugation at 1,600 RCF, 4° C. for 10 minutes. Centrifugation produced a supernatant, which was collected, and then the remaining pellet was re-suspended in centrifugation buffer and centrifuged as before. All supernatants were combined, and centrifuged at 28,000 RCF, 4° C. for a further 20 minutes. The supernatant was then discarded and the pellet re-suspended in Buffer A before incubation for 10 minutes at 37° C. The membrane suspension was then centrifuged at RCF 23,000, 4° C. for 20 minutes. The pellet was then re-suspended in Buffer A and incubated for 40 minutes at room temperature. The suspension was then centrifuged for 15 minutes at RCF 11,000, 4° C., and the pellet was then re-suspended in Buffer B. Finally a Protein Assay was carried out to determine the protein content of the mouse membrane preparation. The membrane samples were then made up into 1 mL aliquots of 1 mg/mL protein concentration and stored at −80° C. The samples were removed and defrosted when they were required.
# The competition binding assay utilizes standard binding buffer, comprising:
# 10 μL of 1 mM stock of CP55940 in DMSO was added to 990 μL of binding buffer.
# This was essential to obtain a value for specific binding, which is defined as the difference between the binding that occurs in the presence and absence of […] unlabelled CP55940.
# (§1) Buffer; [^3H] […] The competition assay was initiated by the addition of the membranes. The assay was incubated at 37° C. in a water bath for 1 hour. The assay was terminated by addition of ice-cold Tris/BSA buffer and rapid vacuum filtration using a 24-well Brandel (cell harvester) and glass-fibre filters that had been soaked in Tris/BSA buffer at 4° C. for 24 hours. Each well was washed 6 times with 1.2 mL of Tris/BSA buffer. The filters were then oven dried for 1 hour. The sections of filter papers were then separated and placed in individual vials, to which 5 mL of scintillation fluid was added. The filter papers were soaked in the scintillation fluid for 1 hour before the radioactivity in each vial was quantified by liquid scintillation spectrometry.
# Data were fitted to a one-site competition curve using GraphPad Prism 4.
# [2] = target: CB1 receptor (Homo sapiens, UniProt P21554); experiment: [35S]GTPγS binding, compound alone, 24 hours FBS-starved CB1 CHO cells; assay type: biochemical; conditions: 1 nM to 10 μM
# CB1 receptor (Homo sapiens, UniProt P21554), sequence (P21554 whole entry): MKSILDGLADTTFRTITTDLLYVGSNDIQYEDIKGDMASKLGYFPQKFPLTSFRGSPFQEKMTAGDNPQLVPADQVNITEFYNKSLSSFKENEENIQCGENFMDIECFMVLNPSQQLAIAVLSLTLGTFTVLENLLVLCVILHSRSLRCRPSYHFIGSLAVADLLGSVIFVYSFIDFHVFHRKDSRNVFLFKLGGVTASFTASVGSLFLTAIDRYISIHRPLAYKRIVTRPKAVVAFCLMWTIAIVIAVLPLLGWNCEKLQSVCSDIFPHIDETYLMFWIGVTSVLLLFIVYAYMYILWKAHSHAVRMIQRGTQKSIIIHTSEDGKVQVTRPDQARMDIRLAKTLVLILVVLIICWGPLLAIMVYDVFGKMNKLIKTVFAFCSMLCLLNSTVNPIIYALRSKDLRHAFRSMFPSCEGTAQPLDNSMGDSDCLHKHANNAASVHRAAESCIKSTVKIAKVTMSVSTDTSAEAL
# From the text: (§2) The [^35S] GTPγS binding assay is simply a means of measuring G protein activation following agonist occupation of a GPCR. The significance of replacing endogenous GTP with radiolabeled [^35S] GTPγS is two-fold. […] GTPγS. Secondly, as with any radiolabelling, the aim is to allow quantitative analysis of a selected molecular species, in this case the degree of agonist binding can be gauged by measuring the subsequent levels of radioactivity in the desired tissue.
# (§3) A vehicle control was an essential aspect of the experiment. […] The vehicle is made up of 10 μL of DMSO and 990 μL of binding buffer, resulting in the assay containing 0.1% vehicle.
# as §1, with “[^35S]” for “[^3H]”, “GTPγS binding” for “competition”, “[^35S] GTPγS.” for “membranes.”, “have” for “had”
# (§4) The data was fitted to a sigmoidal concentration-response curve using GraphPad Prism 4. Significance was defined by a one-sample t-test (GraphPad Prism 4), which compared mean % stimulation values S.E.M. to the basal binding level, 0.0% stimulation.
# The vertical lines indicate S.E.M. (standard error of the mean) (*= P<0.05, **= P<0.01, ***= P<0.001, one-sample t-test) (n=4).
# [3] = target: T2, CB1 receptor (Mus musculus, UniProt P47746); experiment: [35S]GTPγS binding, compound alone (Table 2, Function); assay type: biochemical; design: from tissue; conditions: compound alone
# T2 sequence (P47746 whole entry): as the sequence (P47746 whole entry) above
# From the text: as §2, §3
# as §1, with “[^35S]” for “[^3H]”, “GTPγS binding” for “competition”, “[^35S] GTPγS.” for “membranes.”, “have” for “had”
# as §4
# [4] = target: T2, CB1 receptor; experiment: [35S]GTPγS binding assay in mouse brain membranes, antagonism of CP55940; assay type: biochemical; design: Whole brains from eight adult male mice were dissected and suspended in centrifugation buffer; from tissue; host or cells: mouse whole brain membranes
# From the text: as §2, §3
# as §1, with “[^35S]” for “[^3H]”, “GTPγS binding” for “competition”, “[^35S] GTPγS.” for “membranes.”, “have” for “had”
# as §4
# [5] = target: T2, CB1 receptor; experiment: Electrically-evoked contractions of mouse isolated vas deferens, antagonism of CP55940; design: The isolated vas deferens was then removed from the mouse by cutting through its prostatic end; from tissue; host or cells: isolated vas deferens of male albino MF1 mice
# From the text: (§5) The vas deferens (or ductus deferens) is a muscular tube, approximately 3 mm in diameter and 30 cm in length, connecting the left and right epididymis to the ejaculatory ducts in order to move sperm. It is bound by connective tissue with an ample supply of blood vessels, nerves, and lymphatics. This in vitro bioassay exploits the expression of CB1 receptors on the presynaptic nerve terminals of this tubular structure.
# (§6) The animals used in the study were male albino MF1 mice bred and were housed six to eight per-cage and were kept in a temperature-controlled room which was maintained on a fixed light-dark cycle. All mice were given free access to food and water. Subjects used in the study were a minimum of four weeks of age. Each mouse was stunned by striking the back of the head and killed by dislocation of the neck (cervical vertebrae). Following the killing, the mouse body weight was determined. A transverse incision, approximately of 1.5 cm, was made in the skin with the aid of dissection scissors. A similar-sized transverse incision was made through the lower abdominal wall. […] This was used to identify the vas deferens, which is attached to the testis via the epididymis. Gripping the epididymis with forceps, the vas deferens was cut free first from the testis and then from the connective tissue. The isolated vas deferens was then removed from the mouse by cutting through its prostatic end. This procedure was repeated on the right testis. It was important that throughout the latter two stages of this dissection, care was taken to ensure the vas deferens was not overstretched. In addition to their vas deferens, these animals were euthanized for use of their brain and small intestine by fellow researchers in different research fields. This minimisation of the number of animals euthanized complied with the European Community guidelines.
# (§7) During transit, the two isolated vas deferens from each mice were kept moist in a glass vial filled with warm modified Mg^2+-free Krebs' solution. Before setting the tissue up in an organ bath, further removal of connective tissue, mesentery, and the epididymis was performed; cotton thread was tied securely to both end of the vas deferens.
# (§8) The one-tailed thread was attached to the Pioden UF1 isometric transducer (Harvard Apparatus) and the two-tailed thread hung out of the bottom of the bath. The latter served as an anchor point for applying tension. […] Contractile activity was recorded using the isometric transducer and the output monitored by a computer connected to the data recording and analysis system (MacLab or PowerLab). The tissues were then ready for stimulation. […]
# [6] = target: T2, CB1 receptor; experiment: Electrically-evoked contractions of isolated mouse vas deferens, compound alone; design: The isolated vas deferens was then removed from the mouse by cutting through its prostatic end; from tissue; host or cells: isolated vas deferens of male albino MF1 mice; conditions: 1 μM, tested alone
# From the text: as §5, §6, §7, §8
# [7] = patients, clinical trials; cited from earlier work
Structure (SMILES),Ki [1] [nM],"Effect on [35S]GTPγS binding, compound alone [2]",Function Mouse Brain [35S]GTPγS Alone [3],"Shift in the log concentration response curve for CP55940, [35S]GTPγS [4]","Shift in the log concentration response curve for CP55940, vas deferens contraction [5]",Effect on electrically-evoked contractions of isolated mouse vas deferens [6],Body weight lost each year [7],First year drop-out rate due to side effects [7]
Cc1c(C(=O)Cc2ccccc2)nn(-c2ccc(Cl)cc2Cl)c1-c1ccc(Cl)cc1 [ABD406],24.2,no reduction,Neutral antagonist,right-ward shift,right-ward shift,neither inhibited nor significantly enhanced,,
"Cc1c(C(=O)NN2CCCCC2)nn(-c2ccc(Cl)cc2Cl)c1-c1ccc(Cl)cc1 [SR141716A, N-(piperidin-1-yl)-5-(4-chlorophenyl)-1-(2,4-dichlorophenyl)-4-methyl-1H-pyrazole-3-carboxamide]",,,,,,,5-10%,40-50%
